Laboratory results from ChEMBL document CHEMBL5233249, “Recent advancements in the development of heterocyclic anti-inflammatory agents” (Eur J Med Chem, 2020).

Assays:
Rattus norvegicus [1] = assay: Anti-inflammatory activity against Carrageenan-induced paw edema in PO dosed Wistar albino rat assessed as inhibition of edema measured after 4 hr relative to control; format: functional; parameters: scale not given: the % may be the effect or the level left
Rattus norvegicus [2] = assay: Anti-inflammatory activity in Carrageenan-induced paw edema in Wistar albino rat assessed as reduction in paw edema measured after 3 hr relative to control; format: functional; parameters: scale not given: the % may be the effect or the level left
Rattus norvegicus [3] = assay: Anti-ulcerative activity in aspirin induced Wistar rat ulcer model assessed as inhibition of ulcer index at 20 mg/kg,po; format: functional
Rattus norvegicus [4] = assay: Anti-inflammatory activity in Carageenan-induced foot paw edema in Swiss albino rat assessed as reduction in volume of paw edema measured after 2 hr relative to control; format: functional; parameters: scale not given: the % may be the effect or the level left
Rattus norvegicus [5] = assay: Anti-inflammatory activity in Carrageenan-induced paw edema in Wistar albino rat assessed as reduction in paw edema measured after 1 hr relative to control; format: functional; parameters: scale not given: the % may be the effect or the level left
Rattus norvegicus [6] = assay: Anti-inflammatory activity in Carrageenan-induced paw edema in Wistar albino rat assessed as reduction in paw edema measured after 2 hr relative to control; format: functional; parameters: scale not given: the % may be the effect or the level left
Rattus norvegicus [7] = assay: Anti-inflammatory activity in Carageenan-induced foot paw edema in Swiss albino rat assessed as reduction in volume of paw edema measured after 1 hr relative to control; format: functional; parameters: scale not given: the % may be the effect or the level left
Rattus norvegicus [8] = assay: Anti-inflammatory activity in Carageenan-induced foot paw edema in Swiss albino rat assessed as reduction in volume of paw edema measured after 4 hr relative to control; format: functional; parameters: scale not given: the % may be the effect or the level left
Rattus norvegicus [9] = assay: Anti-inflammatory activity in Carrageenan-induced paw edema in Wistar albino rat assessed as inhibition of edema measured after 3 hrs relative to control; format: functional
Rattus norvegicus [10] = assay: Anti-inflammatory activity against Carrageenan-induced paw edema in PO dosed Wistar albino rat assessed as inhibition of edema measured after 2 hr relative to control; format: functional; parameters: scale not given: the % may be the effect or the level left
Mus musculus [11] = assay: Anti-inflammatory activity in Carrageenan-induced paw edema in PO dosed mouse at 100 mg/kg assessed as inhibition of edema measured after 3 hr relative to control; format: functional; parameters: scale not given: the % may be the effect or the level left
Rattus norvegicus [12] = assay: Anti-inflammatory activity against Carrageenan-induced paw edema in PO dosed Wistar albino rat assessed as inhibition of edema measured after 1 hr relative to control; format: functional; parameters: scale not given: the % may be the effect or the level left
Rattus norvegicus [13] = assay: Anti-inflammatory activity against Carrageenan-induced paw edema in Wistar albino rat ulcerogenic activity assessed as reduction in severity index; format: functional
Rattus norvegicus [14] = assay: Anti-inflammatory activity in Carageenan-induced foot paw edema in Swiss albino rat assessed as reduction in volume of paw edema measured after 6 hr relative to control; format: functional; parameters: scale not given: the % may be the effect or the level left
Rattus norvegicus [15] = assay: Anti-inflammatory activity in Carageenan-induced paw edema Wistar rat model assessed as reduction in paw edema volume relative to control; format: functional; parameters: scale not given: the % may be the effect or the level left
Rattus norvegicus [16] = assay: Anti-inflammatory activity in Carrageenan-induced paw edema in PO dosed Swiss albino rat model at 30 mg/kg assessed as inhibition in volume of edema measured after 1 hrs relative to control; format: functional
[17] = molecular target: T1, Prostaglandin G/H synthase 2 (Homo sapiens, UniProt P35354); assay: Inhibition of COX-2 (unknown origin) assessed as inhibition at 10 uM
T1 sequence (P35354 whole entry): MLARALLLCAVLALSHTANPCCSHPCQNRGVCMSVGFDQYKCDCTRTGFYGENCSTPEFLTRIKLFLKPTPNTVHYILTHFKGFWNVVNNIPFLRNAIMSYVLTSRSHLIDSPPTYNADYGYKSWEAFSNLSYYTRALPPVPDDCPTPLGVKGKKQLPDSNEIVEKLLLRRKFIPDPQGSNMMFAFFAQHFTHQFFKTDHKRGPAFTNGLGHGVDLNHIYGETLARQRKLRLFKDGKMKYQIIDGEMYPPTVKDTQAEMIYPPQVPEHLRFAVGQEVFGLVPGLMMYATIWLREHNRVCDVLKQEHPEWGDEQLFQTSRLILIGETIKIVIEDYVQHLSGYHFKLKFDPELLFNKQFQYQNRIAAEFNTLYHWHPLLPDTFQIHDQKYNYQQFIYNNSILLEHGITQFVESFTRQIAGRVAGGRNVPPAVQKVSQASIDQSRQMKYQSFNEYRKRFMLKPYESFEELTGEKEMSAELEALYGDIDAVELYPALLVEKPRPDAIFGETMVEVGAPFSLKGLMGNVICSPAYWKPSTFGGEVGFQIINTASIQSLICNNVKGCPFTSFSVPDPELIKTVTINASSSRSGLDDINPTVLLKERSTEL

[18] = molecular target: T1, Prostaglandin G/H synthase 2; assay: Inhibition of COX-2 (unknown origin) at 10 uM
Mus musculus [19] = assay: Anti-inflammatory activity in Carrageenan-induced paw edema mouse model assessed as inhibition of granuloma measured after 24 hrs relative to control; format: functional
Rattus norvegicus [20] = assay: Anti-inflammatory activity against formalin-induced foot paw edema in Wistar rat at 5 mg/kg, po assessed as inhibition of edema measured after 4 hr relative to control; format: functional
[21] = molecular target: Prostaglandin G/H synthase 1 (Homo sapiens, UniProt P23219); assay: Inhibition of COX-1 (unknown origin) at 40 uM relative to control
Rattus norvegicus [22] = assay: Anti-inflammatory activity against formalin-induced foot paw edema in PO dosed rat at 10 mg/kg assessed as inhibition of edema measured after 4 hr relative to control; format: functional
Rattus norvegicus [23] = assay: Anti-inflammatory activity against Carrageenan-induced paw edema in PO dosed Wistar albino rat assessed as fold increase in inhibition of […] measured after 1 hr relative to celecoxib; format: functional
RAW264.7 [24] = assay: Anti-inflammatory activity in mouse RAW264.7 cells assessed as inhibition of LPS-induced reduction in cytokine levels relative to control; format: functional; parameters: scale not given: the % may be the effect or the level left
Rattus norvegicus [25] = assay: Anti-inflammatory activity in Carrageenan-induced-Wistar albino rat model assessed as reduction in volume of paw edema measured after 4 hrs; format: functional
Rattus norvegicus [26] = assay: Analgesic activity in Carrageenan- induced paw edema in PO dosed Swiss albino rat assessed as protection of hind paw measured after 2 hrs at 20 mg/kg relative to control; format: functional
RAW264.7 [27] = assay: Anti-inflammatory activity in mouse RAW264.7 cells assessed as inhibition of LPS-induced TNFalpha production relative to control; format: functional; parameters: scale not given: the % may be the effect or the level left
RAW264.7 [28] = assay: Anti-inflammatory activity in mouse RAW264.7 cells assessed as inhibition of LPS-induced IL-6 production preincubated for 1 hr followed by LPS addition and measured after 24 hrs by EIA relative to control; format: functional; parameters: scale not given: the % may be the effect or the level left
Rattus norvegicus [29] = assay: Anti-inflammatory activity in Carrageenan-induced-Wistar albino rat model assessed as reduction in volume of paw edema measured after 3 hrs; format: functional
Rattus norvegicus [30] = assay: Anti-ulcerative activity in Carrageenan-induced Sprague-Dawley rat ulcer model assessed as inhibition of ulcer index at 10 mg/kg,po; format: functional
Rattus norvegicus [31] = assay: Anti-inflammatory activity against carrageenan-induced Albino Wistar rat paw edema model assessed as inhibition of rat paw edema at 50 mg/kg, po after 3 hrs relative to control; format: functional; parameters: scale not given: the % may be the effect or the level left
Mus musculus [32] = assay: Anti-inflammatory activity in Swiss albino mouse of Carrageenan-induced paw edema assessed as reduction in paw edema at 100 mg/kg measured after 2 hr (reference value: 140 +/- 6.3 uL); format: functional
Mus musculus [33] = assay: Anti-inflammatory activity in Swiss albino mouse of Carrageenan-induced paw edema assessed as reduction in inflammation at 100 mg/kg measured after 4 hr relative to control; format: functional; parameters: scale not given: the % may be the effect or the level left
Mus musculus [34] = assay: Anti-inflammatory activity in Swiss albino mouse of Carrageenan-induced paw edema assessed as reduction in inflammation at 100 mg/kg measured after 2 hr relative to control; format: functional; parameters: scale not given: the % may be the effect or the level left
Mus musculus [35] = assay: Anti-inflammatory activity in Swiss albino mouse of Carrageenan-induced paw edema assessed as reduction in paw edema at 100 mg/kg measured after 4 hr (reference value: 126.7 +/- 6.9 uL); format: functional
Mus musculus [36] = assay: Anti-inflammatory activity in Swiss albino mouse of Carrageenan-induced pleurisy assessed as reduction in total leukocytes at 50 mg/kg, po relative to control; format: functional; parameters: scale not given: the % may be the effect or the level left
Mus musculus [37] = assay: Anti-inflammatory activity in Swiss albino mouse of Carrageenan-induced pleurisy assessed as reduction in migration of leukocytes at 100 mg/kg, po (reference value: 5.2 +/- 0.34); format: functional
Mus musculus [38] = assay: Anti-inflammatory activity in Swiss albino mouse of Carrageenan-induced pleurisy assessed as reduction in TNFalpha levels at 100 mg/kg, po; format: functional
Mus musculus [39] = assay: Anti-inflammatory activity in Swiss albino mouse of Carrageenan-induced paw edema assessed as reduction in paw edema at 100 mg/kg measured after 3 hr (reference value: 130 +/- 3.8 uL); format: functional
Mus musculus [40] = assay: Anti-inflammatory activity in Swiss albino mouse of Carrageenan-induced paw edema assessed as reduction in inflammation at 100 mg/kg measured after 1 hr relative to control; format: functional; parameters: scale not given: the % may be the effect or the level left
Mus musculus [41] = assay: Anti-inflammatory activity in Swiss albino mouse of Carrageenan-induced paw edema assessed as reduction in inflammation at 100 mg/kg measured after 3 hr relative to control; format: functional; parameters: scale not given: the % may be the effect or the level left
Mus musculus [42] = assay: Anti-inflammatory activity in Swiss albino mouse of Carrageenan-induced pleurisy assessed as reduction in migration of leukocytes at 100 mg/kg, po relative to control; format: functional; parameters: scale not given: the % may be the effect or the level left
Mus musculus [43] = assay: Anti-inflammatory activity in Swiss albino mouse of Carrageenan-induced paw edema assessed as reduction in paw edema at 100 mg/kg measured after 1 hr (reference value: 142.5 +/- 5.6 uL); format: functional

Chain of Prostaglandin G/H synthase 1 (P23219 whole entry): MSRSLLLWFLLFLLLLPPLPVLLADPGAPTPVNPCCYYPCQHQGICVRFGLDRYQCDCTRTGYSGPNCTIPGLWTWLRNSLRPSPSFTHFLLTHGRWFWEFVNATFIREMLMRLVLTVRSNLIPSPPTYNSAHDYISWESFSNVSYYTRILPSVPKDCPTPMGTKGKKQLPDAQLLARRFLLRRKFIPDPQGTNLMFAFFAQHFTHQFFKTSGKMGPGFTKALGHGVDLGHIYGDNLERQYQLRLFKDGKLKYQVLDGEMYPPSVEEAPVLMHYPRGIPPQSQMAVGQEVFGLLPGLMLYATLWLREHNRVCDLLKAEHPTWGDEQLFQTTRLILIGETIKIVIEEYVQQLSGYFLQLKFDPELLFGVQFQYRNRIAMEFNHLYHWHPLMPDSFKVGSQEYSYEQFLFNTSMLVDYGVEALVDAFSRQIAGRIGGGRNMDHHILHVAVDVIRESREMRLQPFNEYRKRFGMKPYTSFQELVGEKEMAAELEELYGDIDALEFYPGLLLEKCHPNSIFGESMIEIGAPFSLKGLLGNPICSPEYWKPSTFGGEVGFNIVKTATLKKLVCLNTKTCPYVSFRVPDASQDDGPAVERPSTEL

COc1ccc2c(c1)c(CC(=O)O)c(C)n2C(=O)c1ccc(Cl)cc1 [INDOMETHACIN]
Activity (Rattus norvegicus [1]): 30.95% | Activity (Rattus norvegicus [2]): 57.79% | UI (Rattus norvegicus [3]): 20.2 | Activity (Rattus norvegicus [4]): 56.8% | Activity (Rattus norvegicus [5]): 33.15% | Activity (Rattus norvegicus [6]): 50.81% | Activity (Rattus norvegicus [7]): 43.3% | Activity (Rattus norvegicus [8]): 74.56% | inhibition (INH) (Rattus norvegicus [9]): 86.7% | Activity (Rattus norvegicus [10]): 28.89% | Activity (Mus musculus [11]): 47.76% | Activity (Rattus norvegicus [12]): 40% | Activity (Rattus norvegicus [13]): 1.96 mm | Activity (Rattus norvegicus [14]): 85.9% | Activity (Rattus norvegicus [15]): 79.41% | inhibition in vivo at 30 mg/kg (Rattus norvegicus [16]): 71.2%

COc1ccc(/C=C2/SC(=S)C(Nc3nc4c(cnn4-c4ccccc4)c(=O)n3-c3ccccc3)C2=O)cc1OC (stereo not drawn)
IC50 [17]: 370 nM | IC50 [18]: 780 nM | inhibition (INH) (Mus musculus [19]): 38.2% | inhibition in vivo at 5 mg/kg (Rattus norvegicus [20]): 57.4% | IC50 [21]: 3.54 µM

Nc1cc(-c2ccc(Cl)cc2)nn1C1=NC2C(C=NN2c2ccccc2)C(=O)N1c1ccccc1 (stereo not drawn)
inhibition in vivo at 10 mg/kg (Rattus norvegicus [22]): 90% | fold change (FC) (Rattus norvegicus [23]): 8

O=c1[nH]c(-c2ccccn2)nc2sc3c(c12)CCCC3
Activity (RAW264.7 [24]): 70%

Cc1nn(-c2ccccc2)c2c1C(c1ccccc1[N+](=O)[O-])C(C#N)=C(/N=C/c1ccccc1)O2 (stereo not drawn)
ED50 (Rattus norvegicus [25]): 858 µmol/kg

CC1=NN(c2ccc(F)cc2)C(=O)/C1=N\Nc1ccc(-c2nc3ccccc3[nH]2)cc1
Activity (Rattus norvegicus [26]): 65%

O=c1[nH]c(CCl)nc2sc3c(c12)CCCC3
Activity (RAW264.7 [27]): 10% | Activity (RAW264.7 [28]): 90%

NS(=O)(=O)c1ccc(N/N=C/c2cn(-c3ccc(S(N)(=O)=O)cc3)nc2-c2ccc(Cl)cc2)cc1
ED50 (Rattus norvegicus [29]): 8 mg/kg | UI (Rattus norvegicus [30]): 2.72 | Activity (Rattus norvegicus [31]): 97.69%

CN1CCN(C(=O)c2cnn(-c3ccccc3)c2)CC1
Activity (Mus musculus [32]): 88.6 µL | Activity (Mus musculus [33]): 39% | Activity (Mus musculus [34]): 37% | Activity (Mus musculus [35]): 77.1 µL | Activity (Mus musculus [36]): 34.5% | Activity (Mus musculus [37]): 3.3 | Activity (Mus musculus [38]): 2.6 | Activity (Mus musculus [39]): 85.7 µL | Activity (Mus musculus [40]): 19% | Activity (Mus musculus [41]): 34% | Activity (Mus musculus [42]): 36.5% | Activity (Mus musculus [43]): 115.7 µL
